Experiments:
HCV replicon cells = experiment: HCV replicon FRET / luciferase assay (96-well plates); type: cell-based; settings: Hepatitis C virus, Table 1b; HCV replicon; read-out: EC50
Summary of the method: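 Trypsinized replicon cells were seeded with compound titrations and incubated at 37 °C for various times. Alamar blue was added to gauge toxicity. Plates were then rinsed and either lysed with FRET peptide reagent for kinetic fluorescence reading or switched to phenol red-free DMEM for luciferase measurement.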

[1] = biological target: T1, HCV NS5B RdRp genotype 1b (Hepatitis C virus genotype 1b, UniProt Q9WMX2); experiment: Standard HCV NS5B RdRp enzyme assay; type: biochemical; settings: Table 1b; HCV NS5B RdRp genotype 1b; read-out: IC50
T1 construct: The protein was expressed with an 18 amino acid C-terminal truncation to enhance the solubility; made in house; host or cells: E. coli BL21(DE3), pET21a vector
T1 sequence (Q9WMX2 2420-2992): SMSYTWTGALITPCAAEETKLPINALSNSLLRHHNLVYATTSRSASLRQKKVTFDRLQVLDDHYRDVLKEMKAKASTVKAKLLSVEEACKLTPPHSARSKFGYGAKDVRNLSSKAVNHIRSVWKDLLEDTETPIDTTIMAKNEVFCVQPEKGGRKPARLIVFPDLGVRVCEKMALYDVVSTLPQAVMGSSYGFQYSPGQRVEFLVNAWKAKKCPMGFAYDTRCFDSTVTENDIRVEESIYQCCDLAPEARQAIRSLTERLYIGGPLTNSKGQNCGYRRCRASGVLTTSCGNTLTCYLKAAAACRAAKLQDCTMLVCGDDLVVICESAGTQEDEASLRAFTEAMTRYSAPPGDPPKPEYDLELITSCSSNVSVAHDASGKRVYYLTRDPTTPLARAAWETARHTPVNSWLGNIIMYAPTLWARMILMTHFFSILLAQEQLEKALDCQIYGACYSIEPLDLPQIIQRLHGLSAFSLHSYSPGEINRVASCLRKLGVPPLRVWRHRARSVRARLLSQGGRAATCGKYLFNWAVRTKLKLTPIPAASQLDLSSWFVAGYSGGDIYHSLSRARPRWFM
Summary of the method: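 C-terminally truncated (18 aa) genotype 1b NS5B from E. coli, 28 nM, with 6 nM polyA template, 180 nM biotinylated oligo-dT12 primer and 3H-UTP (0.29 μM total UTP). Hepes pH 7.5 buffer with 2% DMSO; 60 min at 30° C. EDTA stop, SPA read-out; IC50 from seven concentrations by four-parameter fit.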

SMILES	EC50 (HCV replicon cells)	IC50 [1]
CNC(=O)c1c(-c2ccc(F)cc2)oc2ccc(-c3ccc(-c4cncc5ccccc45)c(C(=O)NCC(C)C)c3)cc12	< 250 nM	250 to 1000 nM
CNC(=O)c1c(-c2ccc(F)cc2)oc2ccc(-c3ccc(-c4cccnc4OC)c(C(=O)NCC(C)C)c3)cc12	< 250 nM	< 250 nM
CNC(=O)c1c(-c2ccc(F)cc2)oc2ccc(-c3ccc(-c4ccccc4OC)c(C(=O)NCC(C)C)c3)cc12	< 250 nM	< 250 nM
CNC(=O)c1c(-c2ccc(F)cc2)oc2ccc(-c3ccc(-c4cccc(/C=C/C(=O)O)c4)c(C(=O)NCC(C)C)c3)cc12	250 to 1000 nM	< 250 nM
CNC(=O)c1c(-c2ccc(F)cc2)oc2ccc(-c3ccc(-c4ccc5cc[nH]c5c4)c(C(=O)NCC(C)C)c3)cc12	< 250 nM	250 to 1000 nM
CNC(=O)c1c(-c2ccc(F)cc2)oc2ccc(-c3cc(OC(C)C)cc(C(=O)NCC(C)C)c3)cc12	> 10000 nM	1000 to 10000 nM
CNC(=O)c1c(-c2ccc(F)cc2)oc2ccc(-c3cc(C(=O)NCC(C)C)ccc3OC(F)(F)F)cc12	> 10000 nM	250 to 1000 nM
CNC(=O)c1c(-c2ccc(F)cc2)oc2ccc(-c3cc(C(=O)NC4(c5ccccn5)CC4)c(F)cc3O)cc12	250 to 1000 nM	< 250 nM
CNC(=O)c1c(-c2ccccc2)oc2ccc(-c3cc(C(=O)NC4(c5nc(-c6ccccn6)no5)CC4)ccc3C)cc12	< 250 nM	< 250 nM
CNC(=O)c1c(-c2ccc(F)cc2)oc2ccc(-c3cc(C(=O)NC4(c5ccccc5)CC4)ccc3OC(F)(F)F)cc12	< 250 nM	250 to 1000 nM
CNC(=O)c1c(-c2ccc(F)cc2)oc2ccc(-c3cc(C(=O)NC4(c5ccccn5)CC4)ccc3OC(F)(F)F)cc12	< 250 nM	250 to 1000 nM
CNC(=O)c1c(-c2ccc(F)cc2)oc2ccc(-c3cc(C(=O)NC4(c5nc(C)no5)CC4)c(OC)cc3Cl)cc12	< 250 nM	< 250 nM
CNC(=O)c1c(-c2ccc(F)cc2)oc2ccc(-c3cc(C(=O)NC4(c5ccccn5)CC4)c(F)cc3C)cc12	< 250 nM	< 250 nM
CNC(=O)c1c(-c2ccc(F)cc2)oc2ccc(-c3cc(C(=O)NC4(c5nc(C6CC6)no5)CC4)ccc3C)cc12	< 250 nM	< 250 nM
CNC(=O)c1c(-c2ccc(F)cc2)oc2ccc(-c3ccc(-c4cccc(OC)c4F)c(C(=O)NCC(C)C)c3)cc12	250 to 1000 nM	> 10000 nM
CNC(=O)c1c(-c2ccc(F)cc2)oc2ccc(-c3ccc(-c4cc(F)cc(F)c4)c(C(=O)NCC(C)C)c3)cc12	< 250 nM	250 to 1000 nM
C#CCNC(=O)C1(NC(=O)c2ccc(C)c(-c3ccc4oc(-c5ccc(F)cc5)c(C(=O)NC)c4c3)c2)CC1	< 250 nM	< 250 nM
CNC(=O)c1c(-c2ccc(C)cc2)oc2ccc(-c3cc(C(=O)NC4(c5nc(COC)no5)CC4)ccc3C)cc12	< 250 nM	< 250 nM
CNC(=O)c1c(-c2ccc(F)cc2)oc2ccc(-c3cc(OCCN(C)C)cc(C(=O)NCC(C)C)c3)cc12	250 to 1000 nM	250 to 1000 nM
CNC(=O)c1c(-c2ccc(F)cc2)oc2ccc(-c3cc(OCCc4cccnc4)cc(C(=O)NCC(C)C)c3)cc12	1000 to 10000 nM	> 10000 nM

SMILES	EC50 (HCV replicon cells)	IC50 [1]
CNC(=O)c1c(-c2ccc(F)cc2)oc2ccc(-c3cc(C(=O)NC4(c5nnc(N)o5)CC4)ccc3C)cc12	< 250 nM	< 250 nM
CNC(=O)c1c(-c2ccc(F)cc2)oc2ccc(-c3cc(C(=O)NC4(c5noc(C)n5)CC4)ccc3C)cc12	< 250 nM	< 20 nM
CNC(=O)c1c(-c2ccc(F)cc2)oc2ccc(-c3ccc(-c4cccnc4C)c(C(=O)NCC(C)C)c3)cc12	< 250 nM	< 250 nM
CNC(=O)c1c(-c2ccc(F)cc2)oc2ccc(-c3ccc(-c4cncc(N)c4)c(C(=O)NCC(C)C)c3)cc12	250 to 1000 nM	< 250 nM
CNC(=O)c1c(-c2ccc(F)cc2)oc2ccc(-c3ccc(-c4ccnc(N)c4)c(C(=O)NCC(C)C)c3)cc12	< 250 nM	< 20 nM
CNC(=O)c1c(-c2ccc(F)cc2)oc2ccc(-c3cc(C(=O)NC4(c5ccccn5)CC4)c(O)cc3Cl)cc12	250 to 1000 nM	< 250 nM
CNC(=O)c1c(-c2ccc(F)cc2)oc2ccc(-c3cc(C(=O)NC4(c5cccnc5)CC4)ccc3C)cc12	< 250 nM	< 20 nM
CNC(=O)c1c(-c2ccc(F)cc2)oc2ccc(-c3cc(O)cc(C(=O)NCC(C)C)c3)cc12	250 to 1000 nM	< 250 nM
CNC(=O)c1c(-c2ccc(F)cc2)oc2ccc(-c3cc(OCCCCN)cc(C(=O)NCC(C)C)c3)cc12	1000 to 10000 nM	< 250 nM
CNC(=O)c1c(-c2ccc(F)cc2)oc2ccc(-c3cc(OCCC4CCCNC4)cc(C(=O)NCC(C)C)c3)cc12 (stereo not drawn)	< 250 nM	< 250 nM
CNC(=O)c1c(-c2ccc(F)cc2)oc2ccc(-c3cc(OCCn4ccnc4)cc(C(=O)NCC(C)C)c3)cc12	1000 to 10000 nM	1000 to 10000 nM
CNC(=O)c1c(-c2ccc(F)cc2)oc2ccc(-c3cc(OCCc4ccncc4)cc(C(=O)NCC(C)C)c3)cc12	> 500 nM	< 250 nM
C#CCOc1cc(C(=O)NCC(C)C)cc(-c2ccc3oc(-c4ccc(F)cc4)c(C(=O)NC)c3c2)c1	1000 to 10000 nM	1000 to 10000 nM
CNC(=O)c1c(-c2ccc(F)cc2)oc2ccc(-c3cc(OCC4CC4)cc(C(=O)NCC(C)C)c3)cc12	250 to 1000 nM	> 10000 nM
CNC(=O)c1c(-c2ccc(F)cc2)oc2ccc(-c3cc(OCc4cccnc4)cc(C(=O)NCC(C)C)c3)cc12	1000 to 10000 nM	1000 to 10000 nM
CNC(=O)c1c(-c2ccc(F)cc2)oc2ccc(-c3cc(OCc4ccoc4)cc(C(=O)NCC(C)C)c3)cc12	1000 to 10000 nM	1000 to 10000 nM
CNC(=O)c1c(-c2ccc(F)cc2)oc2ccc(-c3cc(OCCC4CCNCC4)cc(C(=O)NCC(C)C)c3)cc12	1000 to 10000 nM	< 250 nM
CCCOc1cc(C(=O)NCC(C)C)cc(-c2ccc3oc(-c4ccc(F)cc4)c(C(=O)NC)c3c2)c1	1000 to 10000 nM	> 10000 nM
CCOc1cc(C(=O)NCC(C)C)cc(-c2ccc3oc(-c4ccc(F)cc4)c(C(=O)NC)c3c2)c1	1000 to 10000 nM	> 500 nM
CNC(=O)c1c(-c2ccc(F)cc2)oc2ccc(-c3cc(OCCOC)cc(C(=O)NCC(C)C)c3)cc12	1000 to 10000 nM	> 500 nM

SMILES	EC50 (HCV replicon cells)	IC50 [1]
CNC(=O)c1c(-c2ccc(F)cc2)oc2ccc(-c3cc(OCCn4ccnc4C)cc(C(=O)NCC(C)C)c3)cc12	1000 to 10000 nM	1000 to 10000 nM
CNC(=O)c1c(-c2ccc(F)cc2)oc2ccc(-c3cc(OC[C@@H]4CCCN4)cc(C(=O)NCC(C)C)c3)cc12	1000 to 10000 nM	1000 to 10000 nM
CNC(=O)c1c(-c2ccc(F)cc2)oc2ccc(-c3cc(OCc4cc(C)on4)cc(C(=O)NCC(C)C)c3)cc12	1000 to 10000 nM	> 1390 nM
CNC(=O)c1c(-c2ccc(F)cc2)oc2ccc(-c3cc(OCc4ccco4)cc(C(=O)NCC(C)C)c3)cc12	1000 to 10000 nM	1000 to 10000 nM
CNC(=O)c1c(-c2ccc(F)cc2)oc2ccc(-c3cc(OCC4CCC4)cc(C(=O)NCC(C)C)c3)cc12	1000 to 10000 nM	> 10000 nM
CNC(=O)c1c(-c2ccc(F)cc2)oc2ccc(-c3cc(OCc4nnc(C)o4)cc(C(=O)NCC(C)C)c3)cc12	1000 to 10000 nM	< 250 nM
CNC(=O)c1c(-c2ccc(F)cc2)oc2ccc(-c3cc(OCCn4cncn4)cc(C(=O)NCC(C)C)c3)cc12	1000 to 10000 nM	250 to 1000 nM
CNC(=O)c1c(-c2ccc(F)cc2)oc2ccc(-c3cc(OCC#N)cc(C(=O)NCC(C)C)c3)cc12	< 250 nM	< 250 nM
CNC(=O)c1c(-c2ccc(F)cc2)oc2ccc(-c3cccc(C(=O)NC4(c5ccccn5)CC4)c3F)cc12	< 250 nM	< 250 nM
CNC(=O)c1c(-c2ccc(F)cc2)oc2ccc(-c3cc(C(=O)NC4(c5ccccn5)CC4)ccc3C(F)(F)F)cc12	< 250 nM	< 250 nM
CNC(=O)c1c(-c2ccc(F)cc2)oc2ccc(-c3cc(C(=O)NC4(c5ccccc5)CC4)ccc3OCCN(C)C)cc12	< 250 nM	< 250 nM
CNC(=O)c1c(-c2ccc(F)cc2)oc2ccc(-c3cc(C(=O)NC4(c5ccccc5)CC4)ccc3OCCO)cc12	< 250 nM	< 250 nM
CNC(=O)c1c(-c2ccc(F)cc2)oc2ccc(-c3cc(C(=O)NC4(c5ccccc5)CC4)ccc3OCC(N)=O)cc12	< 250 nM	< 250 nM
CNC(=O)c1c(-c2ccc(F)cc2)oc2ccc(-c3cc(C(=O)NC4(c5ccccc5)CC4)ccc3OCCN)cc12	< 250 nM	< 250 nM
CNC(=O)c1c(-c2ccc(F)cc2)oc2ccc(-c3cc(C(=O)NC4(c5ccccn5)CC4)ccc3OC)cc12	< 250 nM	< 250 nM
CNC(=O)c1c(-c2ccc(F)cc2)oc2ccc(-c3cc(F)cc(C(=O)NC4(c5ccccn5)CC4)c3)cc12	< 250 nM	< 250 nM
CNC(=O)c1c(-c2ccc(F)cc2)oc2ccc(-c3cc(C(=O)NC4(c5ccccn5)CC4)c(OC)cc3OC)cc12	< 250 nM	< 250 nM
CNC(=O)c1c(-c2ccc(F)cc2)oc2ccc(-c3ccc(Cl)c(C(=O)NC4(c5ccccn5)CC4)c3)cc12	> 10000 nM	250 to 1000 nM
CNC(=O)c1c(-c2ccc(F)cc2)oc2ccc(-c3cc(C(=O)NC4(c5ccccn5)CC4)ccc3OCC(N)=O)cc12	< 250 nM	< 250 nM
CNC(=O)c1c(-c2ccc(F)cc2)oc2ccc(-c3cc(C(=O)NC4(c5ccccn5)CC4)ccc3OCCN(C)C)cc12	< 250 nM	< 250 nM

Source: patent US8309558B2, “Compounds for the treatment of hepatitis C” (Bristol-Myers Squibb Company, priority 2008, dated 2012)
